target: T1, SPHK-1 (Homo sapiens, UniProt Q9NYA1); test: Reporter Assay: sphingosine kinase conversion of fluorescein-labeled sphingosine, read on Lab Chip 3000; assay type: biochemical; conditions: 2 μM Fl-sphingosine, 25 μM ATP, 300 ng/ml SK1, 1 hour at room temperature; from percent conversion of substrate to product; read-out: SPHK-1 IC50 (n =)
T1 construct: purchased BPS Bioscience
Procedure: Sphingosine kinase is a 49 kDa enzyme that catalyzes the formation of sphingosine-1-phosphate (S-1-P) from sphingosine.
Fluorescein labeled sphingosine was obtained from Echelon Biosciences (S-100F). Buffer reagents (1 M Hepes, 10 triton x-100, 100% glycerol, dithiothreitol 1 M MgCl2, ATP, 500 mM EDTA and DMSO) were purchased from Sigma. Coating reagent (CR-3), was obtained from Caliper Life Sciences.
0.05% Triton X-100, 2.5% glycerol, 0.1% CR-3, and 0,6% DMSO. Termination butler included 100 mM Hepes (pH 7.5), 40 mM EDTA, 0.05% Triton X-100, 2.5% glycerol, 0.3% CR-3, and 0.6% DMSO.
All assay components were made in reaction buffer. […] The assaylvas allowed to incubate at room temperature sealed and protected from light for 1 hour.
After 1 hour, 10 μl of termination buffer was added to terminate, the reaction, and the plate was read on a Lab Chip 3000. The plate was read for one cycle. The Lab Chip separated substrate and product based on charge.
Results were calculated based on percent conversion of substrate to product using the following formula: […]
Percent inhibition and IC50's for compounds of the invention were determined using the percent conversion values obtained horn the Lab Chip.

T1 sequence (Q9NYA1 whole entry): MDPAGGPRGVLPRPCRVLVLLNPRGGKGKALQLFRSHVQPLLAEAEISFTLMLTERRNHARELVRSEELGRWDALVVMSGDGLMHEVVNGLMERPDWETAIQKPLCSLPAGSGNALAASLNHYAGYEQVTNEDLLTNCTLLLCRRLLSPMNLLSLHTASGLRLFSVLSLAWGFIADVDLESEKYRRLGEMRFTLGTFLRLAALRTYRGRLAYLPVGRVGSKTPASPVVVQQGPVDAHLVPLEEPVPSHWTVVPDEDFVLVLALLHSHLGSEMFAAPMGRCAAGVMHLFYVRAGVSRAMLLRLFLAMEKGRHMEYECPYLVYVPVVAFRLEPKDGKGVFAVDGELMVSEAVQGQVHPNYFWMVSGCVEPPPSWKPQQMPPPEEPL

Compound	IC50 [µM]
CCCCCCSCCc1ccc(NC(=O)[C@H]2NCC[C@@H]2O)cc1 [Example 40, (2S,3S)-N-(4-(2-(hexylthio)ethyl)phenyl)-3-hydroxy-pyrrolidine-2-carboxamide]	0.007
CCCCCCC(O)CCCc1ccc(NC(=O)[C@@H](N)[C@@H](C)O)cc1 (stereo partly drawn) [Example 35, (2S,3R)-2-amino-3-hydroxy-N-(4-(4-hydroxydecyl)phenyl) butanamide]	6.9
CCCCCCCCCCCc1ccc(NC(=O)[C@@H](N)[C@@H](C)O)cc1 [Example 7, (2S,3R)-2-Amino-3-hydroxy-N-(4-undecylphenyl) butanamide]	0.11
CCCCCCOCc1ccc(NC(=O)[C@H]2NCC[C@@H]2O)cc1 [Example 19, (2S,3S)-N-(4-(Hexyloxy-methyl)phenyl)-3-hydroxy-pyrrolidine-2-carboxamide]	0.99
CCCCCCCCc1ccc(NC(=O)[C@H](N)[C@H](C)O)cc1 [Example 30, (2R,3S)-2-Amino-3-hydroxy-N-(4-octylphenyl) butanamide]	2.1
CCCCCCCCCc1ccc(NC(=O)[C@@H](N)[C@@H](C)O)cc1 [Example 14, (2S,3R)-2-Amino-3-hydroxy-N-(4-nonylphenyl) butanamide]	0.18
CCCCCCCCOCc1ccc(NC(=O)[C@H]2NCC[C@@H]2O)cc1 [Example 21, (2S,3S)-3-Hydroxy-N-(4-(octyloxymethyl)phenyl) pyrrolidine-2-carboxamide]	0.0049
CCCCCCCCc1ccc(NC(=O)[C@@H](N)CO)cc1 [Example 4, (S)-2-Amino-3-hydroxy-N-(4-octylphenyl) propanamide]	4.3
CCCCCCCCc1ccc(NC(=O)[C@H]2NCC[C@@H]2O)cn1 [Example 26, (2S,3S)-3-Hydroxy-N-(6-octylpyridin-3-yl) pyrrolidine-2-carboxamide]	3
C[C@@H](O)[C@H](N)C(=O)Nc1ccc(CCCCCCCOc2ccc(F)cc2)cc1 [Example 17, (2S,3R)-2-Amino-N-(4-(7-(4-fluorophenoxy)heptyl)phenyl)-3-hydroxy-butanamide]	3.6
CCCCCCCC(O)CCCc1ccc(NC(=O)[C@H]2NCC[C@@H]2O)cc1 (stereo partly drawn) [Example 42, (2S,3S)-3-hydroxy-N-(4-(4-hydroxy-undecyl)phenyl) pyrrolidine-2-carboxamide]	0.12
CCCCCCCCOc1ccc(NC(=O)[C@@H](N)[C@@H](C)O)cc1 [Example 18, (2S,3R)-2-Amino-3-hydroxy-N-(4-(octyloxy)phenyl) butanamide]	0.46
CCCCCCOCc1ccc(NC(=O)[C@@H](N)[C@@H](C)O)cc1 [Example 15, (2S,3R)-2-Amino-N-(4-(hexyloxymethyl)phenyl)-3-hydroxy-butanamide]	8.2
CCCCCCCCc1ccc(NC(=O)[C@H](N)[C@@H](C)O)cc1 [Example 31, (2R,3R)-2-Amino-3-hydroxy-N-(4-octylphenyl) butanamide]	1.6
CCCCCCCc1ccc(CNC(=O)[C@H]2NCC[C@@H]2O)cc1 [Example 37, (2S,3S)-N-(4-heptylbenzyl)-3-hydroxy-pyrrolidine-2-carboxamide]	0.47
CCCCC(=O)CCCCCc1ccc(NC(=O)[C@H]2NCC[C@@H]2O)cc1 [Example 38, (2S,3S)-3-hydroxy-N-(4-(6-oxodecyl)phenyl) pyrrolidine-2-carboxamide]	0.086

More lines, now with the values ahead:

IC50 [µM]	Compound
> 1	CCCCCCCCc1ccc(NC(=O)[C@H]([C@H](C)O)N(Cc2ccccc2)Cc2ccccc2)cc1 [Example 49, (2S,3S)-2-(dibenzyl-amino)-3-hydroxy-N-(4-octylphenyl) butanamide]
0.06	CCCCCCCc1nc(-c2ccc3c(c2)CC[C@@H]3NC(=O)[C@H]2NCC[C@@H]2O)no1 [Example 62, (2S,3S)—N—((S)-5-(5-heptyl-1,2,3-oxadiazol-3-yl)-2,3-dihydro-1H-inden-1-yl)-3-hydroxypyrrolidine-2-carboxamide]
0.29	O=C(NCc1ccc(-n2cc(CCC3CCCCC3)nn2)cc1)[C@H]1NCC[C@@H]1O [Example 67, (2S,3S)-(4-(4-(2-Cyclohexylethyl)-1H-1,2,3-triazol-1-yl)benzyl)-3-hydroxypyrrolidine-2-carboxamide]
1.6	CCCCCCCc1ccc(-c2ccc(NC(=O)[C@H]3NCC[C@@H]3O)cc2)nc1 [Example 104, (2S,3S)—N-(4-(5-heptylpyridin-2-yl)phenyl)-3-hydroxypyrrolidine-2-carboxamide]
5.2	O=C(NCc1ccc2oc(CCCOc3ccc(F)cc3)cc2c1)[C@H]1NCC[C@@H]1O [Example 110, (2S,3S)—N-((2-(3-(4-Fluorophenoxy)propyl)benzofuran-5-yl)methyl)-3-hydroxypyrrolidine-2-carboxamide]
> 1	CCCCCCCCc1ccc(NC(=O)[C@H]([C@H](C)O)N(CCC)CCC)cc1 [Example 47, (2S,3S)-2-(dipropyl-amino)-3-hydroxy-N-(4-octylphenyl) butanamide]
2.3	O=C(NCc1cc(F)c2oc(CC3CCCC3)cc2c1)[C@H]1NCC[C@@H]1O [Example 120, (2S,3S)—N-((2-(Cyclopentylmethyl)-7-fluorobenzofuran-5-yl)methyl)-3-hydroxypyrrolidine-2-carboxamide]
> 10	CCCCCCS(=O)(=O)Cc1ccc(NC(=O)[C@H]2NCC[C@@H]2O)cc1 [Example 46, (2S,3S)-N-(4-(hexylsulfonyl-methyl)phenyl)-3-hydroxy-pyrrolidine-2-carboxamide]
0.031	CCCCCCCCc1cc2cc(CNC(=O)[C@H]3NCC[C@@H]3O)ccc2o1 [Example 107, (2S,3S)-3-Hydroxy-N-((2-octylbenzofuran-5-yl)methyl)pyrrolidine-2-carboxamide]
0.51	CCCCCCCCc1cc2c(F)c(CNC(=O)[C@H]3NCC[C@@H]3O)ccc2o1 [Example 121, (2S,3S)—N-((4-Fluoro-2-octylbenzofuran-5-yl)methyl)-3-hydroxypyrrolidine-2-carboxamide]
2.8	CCCCCCCCc1ccc(NC(=O)[C@H](CO)NC)cc1 [Example 51, (S)-3-Hydroxy-2-(methylamino)-N-(4-octylphenyl) propanamide]
0.49	CCCCCCCCc1cc2ccc(CNC(=O)[C@H]3NCC[C@@H]3O)cc2o1 [Example 112, (2S,3S)-3-Hydroxy-N-((2-octylbenzofuran-6-yl)methyl)pyrrolidine-2-carboxamide]
6.5	CCCCCCCCc1ccc(CCNC(=O)[C@H]2NCC[C@@H]2O)cc1 [Example 44, (2S,3S)-3-hydroxy-N-(4-octylphenethyl) pyrrolidine-2-carboxamide]
2.7	CCCCCCCCCCc1ccc(NC(=O)[C@@H]2C[C@@H](O)CCN2)cc1 [Example 124, (2S,4S)—N-(4-decylphenyl)-4-hydroxypiperidine-2-carboxamide]
4	CCCCCCCCc1ccc(NC(=O)[C@@H](N)CCCCO)cc1 [Example 52, (S)-2-Amino-6-hydroxy-N-(4-octylphenyl) hexanamide]
1.8	CCCc1ccc(-c2nc(-c3ccc(CNC(=O)[C@H]4NCC[C@@H]4O)cc3)no2)cc1 [Example 81, (2S,3S)-3-Hydroxy-N-(4-(5-(4-propylphenyl)-1,2,4-oxadiazol-3-yl)benzyl)pyrrolidine-2-carboxamide]
9.4	CCCCCCCCc1cc2cc(CNC(=O)[C@H]3NCC[C@@H]3O)ccc2[nH]1 [Example 108, (2S,3S)-3-Hydroxy-N-((2-octyl-1H-indol-5-yl)methyl)pyrrolidine-2-carboxamide]

— patent US20110275673A1, “INHIBITORS OF SPHINGOSINE KINASE 1” (priority 2008, published 2011)
